The subject of series [1] is 5′-^32p end-labeled 514 bps restriction fragment from pBR322 DNA (Ecor I/ Rsa I). As to the kind of experiment: Reductive cleavage of 32P-end labeled DNA restriction fragment, PAGE autoradiogram. In kind it is biochemical.
Where [2] appears, read: NaBH4 reductive activation, hydrolytic cleavage.
Where [3] appears, read: NaBH4 reductive activation, piperidine cleavage.

`CCOC(=O)c1[nH]c2c(c1COC(C)=O)C(=O)C(OC)=CC2=O`: the melting point (usually the temperature of the solid-liquid transition) lay in the range of 194 to 196 °C.
Consider `COC1=CC(=O)c2[nH]c(COC(C)=O)c(COC(C)=O)c2C1=O` [Compound 1d, 2,3-Diacetoxymethyl-5-methoxyindol-4,7-dione], for which the melting point lay in the range of 179 to 181 °C. In series [1] (setting [2]), the “Cleavage Pattern” value is “recognition occurs only at 3′-GGA-5′ with phosphate alkylation and cleavage occurring largely at the center G base”. The “Cleavage Pattern” value in series [1] (setting [3]) is given as “GT (5′”.
In turn, `COC1=CC(=O)c2[nH]c3c(c2C1=O)CCC3OC(C)=O` (stereo not drawn) [Compound 2b, 3-Acetoxy-7-methoxy-1,2,3,4-tetrahydrocyclopent[b]indole-5,8-dione] registered a melting point of 173 to 175 °C. For the same molecule, the “Cleavage Pattern” value in series [1] (setting [2]) is “No Significant”. Further, the “Cleavage Pattern” value in series [1] (setting [3]) is “G & T of 3′-GT-”.
In the case of `COS(=O)(=O)OC` [DMS, reference compound], the “Cleavage Pattern” value in series [1] (Piperidine cleavage, no reductive activation (sequencing reference lane)) is “G & A”.
With `CC(=O)OCc1[nH]c2c(c1C)C(=O)C(N1CC1)=CC2=O` [reference compound], the “Cleavage Pattern” value is listed as “Weak Cleavage” in series [1] (setting [2]) and “Some G & A” in series [1] (setting [3]).
The matching figures for `CC(=O)OC1CCc2c1[nH]c1c2C(=O)C=C(N2CC2)C1=O` (stereo not drawn) [reference compound]: “No Significant Cleavage” and “G & T of 3′-GT- 5′”.

Values taken from patent US20030119022A1, “Recognition and cleavage at the DNA major groove” (priority 2001, published 2003).
